Data taken from US5783568A, “Methods for treating cancer and other cell proliferative diseases” (Sugen, Inc., priority 1994, dated 1998).
“Also recorded” adds a separate entry of the source.

How the values were obtained:
[1] = system: sFGFR (soluble extracellular domain of FGFR2); assay: Covalent cross-linking (DSS) of sFGFR, dimerization; assay type: biochemical, human
Method: Purified sFGFR was incubated with aFGF in the presence (lanes 2, 4, 6 and 8) or absence (lanes 1, 3, 5 and 7) of heparin for 1 hour at room temperature. The covalent cross-linker, DSS, was then added and incubation was continued for a further 45 minutes. Samples were then boiled in Laemmli sample buffer, separated by SDS-PAGE (6-12% gradient gel), and transferred to a nitro-cellulose membrane. The protein bands were visualized by blotting with anti-FGFR2 (lanes 1-4) or anti-aFGF antibodies (lanes 5-8), followed by ^125 I-protein A. I-sFGFR monomers; II-aFGF/sFGFR complex (monomeric); III-aFGF/sFGFR complex (dimeric).
A plasmid encoding the extracellular, ligand-binding domain of human FGFR2 (residues 1-355) was constructed using standard oligonucleotide-directed mutagenesis (Amersham) to introduce a translational termination codon immediately prior to the beginning of the single transmembrane domain of the receptor (Dionne et al., 1990). BamHI and SacII restriction sites were introduced 3' to the new termination codon. An XbaI-SacII fragment was isolated from the replicative form (RF) of this M13 mutagenesis product, filled in using T4 DNA polymerase (Boehringer-Mannheim) and inserted into the SmaI site of the expression vector pCVN (Dionne et al., 1990). This expression vector, which contains both the neomycin resistance and the dihydrofolate reductase genes for selection and amplification, was transfected into CHO cells following published procedures. Wigler et al., 1979, Cell 16:777-785.
Purified sFGFR (0.2 μM) was incubated with aFGF (0.6 μM) in the presence or absence of heparin. […] Cross-linking studies of aFGF alone were performed using the same procedure, except that samples were analyzed by 15% SDS-PAGE and detected by staining with Coomassie Brilliant Blue.
If aFGF activates its receptor in a similar manner, aFGF binding to sFGFR would therefore be expected to promote its dimerization. […] Samples were then analyzed by SDS-PAGE, followed by immunoblotting with either anti-FGFR2 or anti-aFGF antibodies. […]

sFGFR = assay: aFGF/sFGFR/heparin complex formation by non-denaturing PAGE; assay type: binding, human; conditions: aFGF alone or heparin alone
Method: aFGF, heparin or a mixture of aFGF and heparin were added to sFGFR. Free aFGF and sFGFR were separated from the complexes by gel-filtration, and fractions containing the complexes were analyzed by non-denaturing PAGE. Proteins were visualized by staining with Coomasie Brilliant blue. Various oligomerization states of aFGF/sFGFR are detected only in the presence of heparin.
aFGF alone, or a pre-incubated mixture of heparin and aFGF (molar ratio 1:10) was added to a solution containing sFGFR. The mixtures were then incubated for 20 min at room temperature in 20 mM Hepes pH 7.5, 200 mM NaCl. Size-exclusion chromatography, using a Superose 12 column (Pharmacia), was then employed to separate free aFGF and sFGFR from the complex that formed. Fractions containing the isolated complexes were pooled, and analyzed by non-denaturing PAGE (4-15% gradient gels), using the Phastsystem (Pharmacia). Gels were stained with Coomassie Blue. In the case of the sFGFR/heparin mixture (FIG. 4, lane 2), heparin was simply added to the sFGFR solution prior to electrophoresis.
The requirement of both heparin and aFGF for the induction of sFGFR dimerization was also confirmed in a second experimental system. sFGFR was incubated with aFGF alone, or with aFGF plus heparin.

Substance	sFGFR dimerization, aFGF alone ([1]; no heparin)	mobility of sFGFR in non-denaturing PAGE (sFGFR)	sFGFR dimerization, heparin plus aFGF ([1]; both heparin and aFGF)	effect on mobility of sFGFR, heparin alone ([1]; no aFGF)
aFGF: aFGF was expressed in E. coli and purified by binding to a heparin-sepharose column	No cross-linked dimeric form of sFGFR could be detected; also recorded: they were not detected in the presence of aFGF alone; also recorded: did not, however, result in the formation of dimers of the receptor extracellular domain	reduced slightly		
heparin		no significant effect upon the migration of sFGFR	cross-linked dimers of sFGFR are formed under these conditions; also recorded: the binding of aFGF to sFGFR did lead to its dimerization	did not affect the mobility of sFGFR
